# Source: patent publication US10106532B2, “Inhibitors of beta-hydroxylase for treatment of cancer” (MIDWESTERN UNIVERSITY, priority 2012, dated 2018)
# Entries after “also recorded” stand apart in the source; their conditions may differ.
# How the values were obtained:
# ASPH [1] = molecular target: T1, ASPH (Homo sapiens, UniProt Q12797); test: binding to ASPH by isothermal titration calorimetry
# T1 sequence (Q12797 1-758): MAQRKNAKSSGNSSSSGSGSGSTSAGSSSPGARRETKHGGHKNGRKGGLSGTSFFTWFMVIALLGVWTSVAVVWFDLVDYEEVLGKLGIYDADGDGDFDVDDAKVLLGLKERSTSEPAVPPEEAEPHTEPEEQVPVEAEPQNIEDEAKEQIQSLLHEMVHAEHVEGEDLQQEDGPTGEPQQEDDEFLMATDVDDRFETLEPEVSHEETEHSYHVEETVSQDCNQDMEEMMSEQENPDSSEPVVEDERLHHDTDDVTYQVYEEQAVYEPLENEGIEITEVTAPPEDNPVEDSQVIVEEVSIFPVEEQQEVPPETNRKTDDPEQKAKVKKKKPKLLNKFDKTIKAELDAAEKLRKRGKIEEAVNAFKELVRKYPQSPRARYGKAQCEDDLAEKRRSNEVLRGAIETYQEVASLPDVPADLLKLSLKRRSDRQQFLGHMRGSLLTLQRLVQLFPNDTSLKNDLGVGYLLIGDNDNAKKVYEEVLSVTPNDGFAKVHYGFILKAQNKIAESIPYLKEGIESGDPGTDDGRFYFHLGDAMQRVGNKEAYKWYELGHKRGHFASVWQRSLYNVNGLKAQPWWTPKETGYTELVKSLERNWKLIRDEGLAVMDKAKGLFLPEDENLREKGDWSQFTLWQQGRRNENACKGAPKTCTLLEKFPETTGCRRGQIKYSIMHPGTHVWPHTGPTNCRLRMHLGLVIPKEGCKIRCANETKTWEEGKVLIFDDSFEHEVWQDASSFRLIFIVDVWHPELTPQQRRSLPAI
# Description: In the second step arylhydroxytetronimide was sulfonylated with phenylmethansulfonyl chloride in dry tetrahydrofuran to yield compounds of formula 1 (shown below). Compounds were characterized by 1H and 13C nuclear magnetic resonance, high resolution mass spectroscopy, high performance liquid chromatography, infra-red spectroscopy, melting point, elemental analysis and binding to ASPH by isothermal titration calorimetry.
# Candidate parent compounds were selected as inhibitors for β-hydroxylase activity based on crystal structure of the catalytic site in the C-terminal region of ASPH and computer assisted drug design.
# FOCUS cells [2] = test: MTT assay (cell proliferation, metabolic activity); format: cell-based, human; conditions: micromolar concentrations
# Procedure: (§1) A MTT assay was performed to evaluate the effect of MO-1-1100 on cell proliferation and viability. MTT is reduced to purple formazan in living cells. FOCUS cells were used as a high ASPH expressing human HCC cell line. […] The MTT assay measures cellular metabolic activity via NAD(P)H-dependent cellular oxidoreductase enzymes. […] In order to evaluate the effect of long-term exposure of MO-1-1100, the colony formation assay (an assay of malignant potential and phenotype) in which cells were treated with inhibitor for 3 weeks was performed.
# NIH-3T3 cells = test: MTT assay (cell proliferation, metabolic activity); format: cell-based, mouse
# Procedure: as §1
# FOCUS HCC cells = test: colony formation assay; format: cell-based, human; conditions: 1.25 μM
# Procedure: as §1
# FOCUS cells [3] = test: anchorage independent growth in soft agar; format: cell-based, human
# Procedure: The effect of MO-1-1100 on anchorage independent growth in soft agar was evaluated. The ability of forming colonosphere in soft agar is considered to be a rigid test for tumorigenic potential. ASPH expression results in cells acquiring the ability to form colonospheres in soft agar. […] In order to evaluate the effect of ASPH inhibitor for anchorage independent colony formation, FOCUS cells were incubated in soft agar with or without this ASPH enzymatic inhibitor. After 3 weeks incubation, MO-1-1100 reduced colonosphere formation of FOCUS cells (FIG. 9A). […] This assay is a standard method to monitor malignant growth that reflects the ability to form tumors that grow aggressively in vivo.
# FOCUS cells [4] = test: directional motility, Boyden chamber-type culture inserts; format: cell-based, human; conditions: 5 μM pretreatment for 24 hours, migration 30 min
# Procedure: (§2) The β-hydroxylase activity is required for ASPH to mediate its effects on cell motility. Directional motility was measured using Boyden chamber-type culture inserts equipped with porous membranes. FOCUS cells were pretreated with 5 μM of MO-1-1100 and MO-1-500 β-hydroxylase inhibitor for 24 hours, and then placed into the upper chamber. Migration was allowed to proceed for 30 min. ATPLite was used to quantify viable cell density. The cells in the upper well and upper surface of membrane reflects the number of non-migrating cells, luminescence measured at the bottom surface of the membrane reflects the number of migrating and non-adherent cells and luminescence measured in the bottom well was reflect migrating and non-adherent cells. […] Cell invasiveness was assessed by invasion assay using matrigel coated membrane, in which cells were allowed to proceed for 6 hours; those found adhered on the bottom surface of membrane were regarded as invading cells.
# FOCUS cells [5] = test: invasion assay using matrigel coated membrane; format: cell-based, human; conditions: 6 hours, compared to DMSO control
# Procedure: as §2
# ASPH [6] = molecular target: T1, ASPH; test: high throughput 14CO2 capture enzymatic assay for ASPH β-hydroxylase activity (ASPH mAb capture from lysates of treated FOCUS cells); format: biochemical; parameters: endogenous in cells; host or cells: FOCUS cells (human hepatocellular carcinoma line)
# Procedure: In yet another aspect, the disclosure provides a method determining ASPH activity by contacting an EGF-like domain peptide with a detectably-labeled α-ketoglutarate and ASPH enzyme and measuring β-hydroxylase activity. In one embodiment, said α-ketoglutarate is ^14C-labelled, and wherein β-hydroxylase activity is measured by detecting liberated ^14CO2. In one embodiment, said liberated ^14CO2 is captured on a filter and radioactivity quantified. […] In one embodiment, said EGF-like domain comprises the amino acid sequence of […] (SEQ ID NO:1). In one embodiment, said EGF-like domain peptide comprises the consensus sequence of CDXXXCXXKXGNGXCDXXCNNAACXXDGXDC (SEQ ID NO: 2).
# FIG. 3A is a diagram of the biochemical reaction catalyzed by ASPH derived from PC cell lysates. FIG. 3B is a cartoon illustrating the read-out to quantify ASPH activity in PC cells and tumors. FIG. 3C is an image of membrane was obtained by a phosphor-imager after a 16 hour exposure of the trapping filter to a phospho-screen. FIG. 3D is a bar graph showing intensities were calculated by Image J software and compared to a DMSO control. Vertical bars represent standard deviation. These figures show methods of measurement and data relating to ASPH catalytic activity.
# EGF and EGF-like domains are well known in the art and generally include six cysteine residues which have been shown (in EGF) to be involved in disulfide bonds. The main structure is a two-stranded beta-sheet followed by a loop to a C-terminal short two-stranded sheet. Subdomains between the conserved cysteines vary in length. Examples include those described in Davis, C G, 1990, New Biol. 2(5):410-9; Blomquist et al., 1984, Proc Natl Acad Sci USA. 81(23):7363-7; Hommel et al., […], J Mol Biol. 227(1):271-82; Doolittle et al., 1984, Nature. 307(5951):558-60; Appella et al., 1988, FEBS Lett. 231(1):1-4; Sorkin A., 2001, Biochem Soc Trans. August; 29(Pt 4):480-4; each of which is hereby incorporated by reference). FIGS. 3A-C represents the strategy for development and characterization of the performance of an assay to measure ASPH enzymatic activity. FIG. 3A describes the biochemical reaction catalyzed by ASPH. FIG. 3B depicts the read-out of the assay. Protein lysates were extracted from FOCUS cells (high level of ASPH cell surface expression) treated with 1-10 μM of each parent compound for 24 hours. The lysates were added into 96 well-plates coated with ASPH monoclonal antibodies (mAbs) to add an antigen specific (ASPH) capture step to the assay design. After incubation and washing, only ASPH is captured on each well. The reaction is carried out with 60 μM of an EGF domain containing 39AA peptide, 100 μM FeCl2 and 40 μM ^14C labeled α-ketoglutarate were added into each well. The ^14CO2 was captured on a glass fiber membrane soaked in Ca(OH)2. […] The compound was further characterized for clinical use as an anti-tumor agent for PC and HCC and other ASPH-expressing tumors.
compound,measurement,setting,value
"NC1=C(OS(=O)(=O)c2ccccc2)C(=O)C(c2ccc(Cl)cc2)O1 (centres unmarked) [Compound 7c, 2-(4-chlorophenyl)-4-[[phenylsulfonyl]oxy]-5-amino-3(2H)-furanone]",melting point,,190 to 195 °C
"NC1=C(O)C(=O)C(c2ccc(Cl)cc2)O1 (centres unmarked) [Example 1c, 5-amino-4-hydroxy-2-(4-chlorophenyl)-furan-3-one]",melting point,,221 to 222 °C
"NC1=C(O)C(=O)C(c2ccccc2F)O1 (centres unmarked) [Example 1j, 5-amino-4-hydroxy-2-(2-fluorophenyl)-furan-3-one]",melting point,,160 to 163 °C
"NC1=C(O)C(=O)C(c2cccc(F)c2)O1 (centres unmarked) [Example 1k, 5-amino-4-hydroxy-2-(3-fluorophenyl)-furan-3-one]",melting point,,168 °C
"NC1=C(O)C(=O)C(c2cccc(F)c2F)O1 (centres unmarked) [Example 1m, 5-amino-4-hydroxy-2-(2,3-difluorophenyl)-furan-3-one]",melting point,,193 °C
"NC1=C(O)C(=O)C(c2ccc(F)cc2F)O1 (centres unmarked) [Example 1n, 5-amino-4-hydroxy-2-(2,4-difluorophenyl)-furan-3-one]",melting point,,182 to 183 °C
"NC1=C(O)C(=O)C(c2cc(F)ccc2F)O1 (centres unmarked) [Example 1o, 5-amino-4-hydroxy-2-(2,5-difluorophenyl)-furan-3-one]",melting point,,196 °C
"NC1=C(O)C(=O)C(c2c(F)cccc2F)O1 (centres unmarked) [Example 1p, 5-amino-4-hydroxy-2-(2,6-difluorophenyl)-furan-3-one]",melting point,,159 to 160 °C
"NC1=C(O)C(=O)C(c2ccc(F)c(F)c2)O1 (centres unmarked) [Example 1q, 5-amino-4-hydroxy-2-(3,4-difluorophenyl)-furan-3-one]",melting point,,190 to 194 °C
"NC1=C(O)C(=O)C(c2cc(F)cc(F)c2)O1 (centres unmarked) [Example 1r, 5-amino-4-hydroxy-2-(3,5-difluorophenyl)-furan-3-one]",melting point,,190 to 191 °C
"CC(=O)OC1=C(N)OC(c2ccc(Cl)cc2)C1=O (centres unmarked) [Example 2c, 2-(4-chlorophenyl)-4-(acetoxy)-5-amino-3(2H)-furanone]",melting point,,221 to 222 °C
CCS(=O)(=O)Nc1oc(-c2ccc(Cl)cc2)c(O)c1O [MO-1-500],ASPH binding,ASPH [1],confirmed to demonstrate ASPH binding
same,cell proliferation and metabolic activity,FOCUS cells [2],striking affects; also recorded: growth inhibited
same,specificity for the β-hydroxylase activity of ASPH,NIH-3T3 cells; FOCUS (express ASPH) versus NIH-3T3 (do not express ASPH),not specific for ASPH
same,cell proliferation and metabolic activity,"NIH-3T3 cells; NIH-3T3 cells, micromolar concentrations",striking affects; also recorded: growth inhibited
same,colony formation,FOCUS HCC cells,substantial inhibitory effects; also recorded: strikingly inhibits
same,number of colonies formed and colony size in soft agar,FOCUS cells [3]; 1 μM,dramatically reduced
same,number and size of FOCUS cell colonies in soft agar,"FOCUS cells [3]; 0.5, 1, and 5 μM",striking reduction
same,cell migration / motility,FOCUS cells [4],pronounced effect
same,invasiveness,FOCUS cells [5],pronounced effect
same,identified as hits (screening for inhibition of β-hydroxylase activity),ASPH [6],identified as hits
same,ASPH enzymatic activity,ASPH [6]; 5 μM,inhibited
same,ASPH enzymatic inhibitory activity (β-hydroxylase),ASPH [6]; concentration not given,inhibit
